Active and inactive are the calls of the source. The rule behind the calls is not given here.
Columns and labels:
[1] = Inhibition of fMLF/CB-induced superoxide anion generation in human neutrophil; assay type: functional, tissue-based
[2] = test system: Neutrophil; assay: Inhibition of elastase release in fMLF/CB-stimulated human neutrophil at 10 µM
[3] = Inhibition of fMLF/CB-induced superoxide anion generation in human neutrophil at 10 uM relative to control; assay type: functional

Structure (SMILES)	IC50 [1] [µM]	inhibition [2]	inhibition at 10 µM [3] [%]
COc1ccc2oc(Sc3cccc(F)c3)cc(=O)c2c1	> 10	inactive	17.3
COc1cc2oc(Sc3cccc(F)c3)cc(=O)c2c(OC)c1OC	> 10	inactive	47.5
COc1cccc(Oc2cc(=O)c3ccc(OC)cc3o2)c1	> 10	inactive	46.8
COc1cc(OC)cc(Oc2cc(=O)c3c(OC)cccc3o2)c1	> 10	inactive	-0.4
O=c1cc(N2CCOCC2)oc2c(-c3ccccc3)cccc12 [LY-294002]	1.3	–	93.4
COc1cc(OC)c2c(=O)cc(Oc3ccc(OC)c(OC)c3)oc2c1	> 10	inactive	7.8
COc1cccc2oc(Sc3cccc(F)c3)cc(=O)c12	> 10	inactive	10.6
COc1cc(OC)cc(Oc2cc(=O)c3c(OC)cc(OC)cc3o2)c1	> 10	inactive	27.5
COc1cc(OC)c2c(=O)cc(Oc3ccccc3OC)oc2c1	> 10	inactive	2.5
COc1ccc2c(=O)cc(Oc3ccc(O)c(OC)c3)oc2c1	5.2	inactive	71.3
COc1ccc2c(=O)cc(Sc3cccc(F)c3)oc2c1	5	inactive	70.9
COc1ccc2c(=O)cc(Oc3ccccc3OC)oc2c1	> 10	inactive	3.8
COc1ccc2c(=O)cc(Oc3cccc(O)c3)oc2c1	> 10	inactive	6.9
COc1ccc(Oc2cc(=O)c3c(OC)cccc3o2)cc1OC	> 10	inactive	12.8
COc1cc(OC)c2c(=O)cc(Sc3cccc(F)c3)oc2c1	7	inactive	61
COc1cccc(Oc2cc(=O)c3c(OC)cc(OC)cc3o2)c1	> 10	inactive	22.4

— ChEMBL document CHEMBL4706673, “The study on structure-activity relationship between chromone derivatives and inhibition of superoxide anion generating from human neutrophils” (Bioorg Med Chem Lett, 2021)
